# PMC2694132 (Cancer research, 2009)
# Legend:
# UGT1A9 = target: T1, UGT1A9 (Homo sapiens, UniProt O60656); assay: SAHA glucuronidation, UGT1A9-overexpressing HEK293 cell homogenate; assay type: in vitro ADME
# T1 sequence (O60656 26-530): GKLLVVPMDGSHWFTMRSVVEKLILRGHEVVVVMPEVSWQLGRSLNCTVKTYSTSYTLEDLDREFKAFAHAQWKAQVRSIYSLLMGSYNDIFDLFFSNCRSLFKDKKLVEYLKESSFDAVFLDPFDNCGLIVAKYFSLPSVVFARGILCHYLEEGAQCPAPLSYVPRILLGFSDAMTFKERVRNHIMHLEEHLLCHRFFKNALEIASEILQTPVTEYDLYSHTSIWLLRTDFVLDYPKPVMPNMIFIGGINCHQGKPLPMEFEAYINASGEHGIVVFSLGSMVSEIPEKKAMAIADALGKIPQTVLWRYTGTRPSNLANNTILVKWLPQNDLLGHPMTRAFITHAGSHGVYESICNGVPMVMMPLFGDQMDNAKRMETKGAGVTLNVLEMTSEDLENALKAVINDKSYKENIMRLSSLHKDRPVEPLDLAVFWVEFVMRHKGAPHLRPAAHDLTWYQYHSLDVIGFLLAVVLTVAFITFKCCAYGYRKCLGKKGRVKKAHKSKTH
# UGT1A10 = target: T2, UGT1A10 (Homo sapiens, UniProt Q9HAW8); assay: SAHA glucuronidation, wild-type UGT1A10; assay type: in vitro ADME
# T2 sequence (Q9HAW8 26-530): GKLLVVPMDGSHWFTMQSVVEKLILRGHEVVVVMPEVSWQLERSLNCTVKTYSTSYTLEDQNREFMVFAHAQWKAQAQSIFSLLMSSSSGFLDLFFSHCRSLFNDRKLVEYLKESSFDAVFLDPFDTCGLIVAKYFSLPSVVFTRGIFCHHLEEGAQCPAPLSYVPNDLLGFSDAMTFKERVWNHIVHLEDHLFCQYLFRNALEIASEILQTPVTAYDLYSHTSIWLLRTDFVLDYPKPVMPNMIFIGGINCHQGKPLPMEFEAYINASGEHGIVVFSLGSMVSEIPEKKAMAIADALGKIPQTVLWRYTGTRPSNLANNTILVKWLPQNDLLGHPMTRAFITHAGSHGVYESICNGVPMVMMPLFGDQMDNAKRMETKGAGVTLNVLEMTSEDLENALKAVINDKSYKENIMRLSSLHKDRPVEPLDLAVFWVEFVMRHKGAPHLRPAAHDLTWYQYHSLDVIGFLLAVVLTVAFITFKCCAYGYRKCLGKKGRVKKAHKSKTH
# UGT2B17 = target: T3, UGT2B17 (Homo sapiens, UniProt O75795); assay: SAHA glucuronidation, UGT2B17-overexpressing HEK293 cell homogenate; assay type: in vitro ADME
# T3 sequence (O75795 24-530): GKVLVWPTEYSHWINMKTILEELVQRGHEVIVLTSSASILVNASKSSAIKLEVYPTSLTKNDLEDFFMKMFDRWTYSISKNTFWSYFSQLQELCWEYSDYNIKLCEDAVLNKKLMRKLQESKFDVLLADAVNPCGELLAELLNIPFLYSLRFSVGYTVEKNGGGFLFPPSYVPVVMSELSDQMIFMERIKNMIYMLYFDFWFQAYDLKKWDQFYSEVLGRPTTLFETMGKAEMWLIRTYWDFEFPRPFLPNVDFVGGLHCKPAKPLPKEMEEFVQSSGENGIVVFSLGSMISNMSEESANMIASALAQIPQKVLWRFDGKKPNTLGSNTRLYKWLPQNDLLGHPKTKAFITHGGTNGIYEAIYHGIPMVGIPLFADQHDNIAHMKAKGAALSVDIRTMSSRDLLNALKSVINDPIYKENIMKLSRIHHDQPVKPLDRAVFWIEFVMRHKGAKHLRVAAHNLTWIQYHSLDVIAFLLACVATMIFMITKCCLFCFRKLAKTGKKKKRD
# [1] = target: T4, UGT1A8*2 (UGT1A8p.Ala173Gly) (Homo sapiens, UniProt Q9HAW9, A173G); assay: SAHA glucuronidation, UGT1A8*2 variant cell homogenate; assay type: in vitro ADME
# T4 sequence (Q9HAW9 26-530 A173G): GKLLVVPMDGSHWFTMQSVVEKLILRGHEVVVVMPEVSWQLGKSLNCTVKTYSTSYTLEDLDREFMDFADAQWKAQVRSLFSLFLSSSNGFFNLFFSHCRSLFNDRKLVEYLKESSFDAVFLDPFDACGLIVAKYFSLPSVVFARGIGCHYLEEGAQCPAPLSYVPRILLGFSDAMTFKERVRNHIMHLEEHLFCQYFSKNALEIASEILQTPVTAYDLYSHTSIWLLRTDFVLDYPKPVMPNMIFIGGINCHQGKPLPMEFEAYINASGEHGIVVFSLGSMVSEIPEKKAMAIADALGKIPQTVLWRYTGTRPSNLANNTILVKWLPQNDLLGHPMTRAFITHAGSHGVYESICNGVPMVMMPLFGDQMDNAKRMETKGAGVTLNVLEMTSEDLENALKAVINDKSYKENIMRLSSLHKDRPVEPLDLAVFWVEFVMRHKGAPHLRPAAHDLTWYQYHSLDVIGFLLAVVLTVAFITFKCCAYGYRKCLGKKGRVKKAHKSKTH
# [2] = patients treated with SAHA; cited from earlier work
# [3] = 400 μg UGT-overexpressing cell homogenate, 1-h incubation
smiles,measurement,setting,value
"O=C(CCCCCCC(=O)Nc1ccccc1)NO [SAHA, Suberoylanilide hydroxamic acid]",glucuronidation against SAHA (screen),UGT1A9; [3],high levels of glucuronidation
same,Km at 1 h,"UGT1A9; human, UGT1A9-overexpressing HEK293 cell homogenate, pH 7.5",1600 ± 500 µM
same,glucuronidation against SAHA (screen),UGT1A10; [3],high levels of glucuronidation
same,KM of UGT1A10 higher than that observed for UGT2B17,UGT1A10; against SAHA,3 fold
same,Km at 1 h,"UGT1A10; human, pH 7.5",1000 ± 100 µM
same,glucuronidation against SAHA (screen),UGT2B17; [3],high levels of glucuronidation
same,apparent KM of UGT2B17 lower than that of UGT1A3,UGT2B17; against SAHA,11 fold
same,apparent KM of UGT2B17 lower than that of UGT1A9,UGT2B17; against SAHA,5 fold
same,higher level of glucuronidation activity (Vmax/KM) of UGT2B17 compared with UGT1A3,UGT2B17; against SAHA,9.4 fold
same,higher level of glucuronidation activity (Vmax/KM) of UGT2B17 compared with UGT1A9,UGT2B17; against SAHA,2.3 fold
same,Km at 1 h,"UGT2B17; human, UGT2B17-overexpressing HEK293 cell homogenate, pH 7.5",300 ± 100 µM
same,decrease in glucuronidation activity against SAHA compared with wild-type UGT1A8,"[1]; UGT1A8p.Ala173Gly variant, P < 0.005",3 fold
same,Km at 1 h,"[1]; human, UGT1A8*2 variant-overexpressing cell homogenate, pH 7.5",3000 ± 700 µM
same,apparent terminal half-life,[2],~ 1.8 hours
